The source of these data is patent publication US4800194A, “Acylphosphorotriamides useful as lipid-altering agents” (priority 1986, dated 1989).

The test system of one assay is pseudocholinesterase. Description: Multiple dose study in hyperlipidemic guinea pigs: plasma pseudocholinesterase activity (Test Method 2, Example 29). In kind it is in vivo, guinea pig. The conditions noted are these: 2.5 mg/kg i.p. once daily. An excerpt:
(§1) Male Hartley guinea pigs (Elm Hill Breeding Labs., Chelmsford, MA or Charles River, Wilmington, MA) was used in all experiments unless otherwise specified. The animals were maintained on a normal diet of rabbit pellets (Purina Rabbit Chow 5321, Ralston Purina, St. Louis, MO) and water containing 0.1% ascorbic acid ad libitum. For special studies in the hyperlipidemic guinea pig model, the animals were maintained on the high cholesterol diet described in this report and water containing 0.1% ascorbic acid ad libitum.
(§2) Individual animals were identified by ear and cage markings. The dose of drug or placebo was adjusted daily for changes in the weight of the guinea pigs. Blood samples were collected in EDTA Vacutainers by open chest cardiac puncture under carbon dioxide anesthesia from guinea pigs which had been fasted overnight. The animals were then sacrificed by CO2 inhalation. Blood samples were centrifuged at 2000 rpm for 15 min. in an IEC centrifuge (International Equipment Co., Boston, MA) with a 240 rotor for isolation of plasma. Lipoprotein analyses of plasma were carried out on the same day as the blood collection. Assays of pseudocholinesterase activity were carried out within a week of blood collection on plasma samples which had been stored at 4° C.
The assay method used was based on the procedure described in Ellman, G. L., K. D. Courtney, V. Andres & R. M. Featherstone, "A New and Rapid Colorimetric Determination of Acetylcholinesterase Activity", Biolchemical Pharmacology, Vol. 7 (1961), pp. 88-95. Reactions were carried out at 35° C. in pH 7.2 NaH2 PO4 50 mM buffer containing 5 mM butyrylthiocholine iodide (substrate) and 0.25 mM 5,5'-dithiobis-[2-nitrobenzoic acid] (chromogen). The rate of change of absorbance at 405 nm with time was monitored by means of a Cary 16 spectrophotometer (Varian Associates, Walnut Creek, CA) or a Beckman DU-8B spectrophotometer (Beckman Instruments, Inc., Palo Alto, CA). Corrections were made for non-enzymic hydrolysis of substrate.
Enzyme Buffer: 6.90 g (50 mmol) NaH2 PO4.H2 O+[…] (0.25 mmol) 5,5'-dithiobis-(2-nitrobenzoic acid). The reagents were dissolved in Milli-Q purified distilled water, titrated to pH 7.2 with 1N NaOH, and diluted to one liter with water.
Substrate: 0.2476 g (0.780 mmol) S-butyrylthiocholine iodide (BTC). The substrate was dissolved in 5 ml of Milli-Q purified distilled water. [BTC]=156 mM.
Into a 1-cm pathlength cuvette was placed 3.0 ml of enzyme buffer. At least 10 min. was allowed for temperature equilibration. A 100 μl aliquot of substrate was added to the cuvette, the solution was mixed and about 3 min. was allowed for determination of the non-enzymic rate of substrate hydrolysis before the enzymic reaction was initiated by addition of 25 μl of plasma. The increase in absorbance at 405 nm was measured vs. a blank containing enzyme buffer.
Into a 1-cm pathlength cuvette was placed 3.0 ml of enzyme buffer and 100 μl of substrate. The solution was mixed and about 10 min. was allowed for temperature equilibration. The reaction was initiated by addition of 25 μl of plasma. The increase in absorbance at 405 nm was measured vs. a blank containing enzyme buffer and substrate. No additional correction for non-enzymic substrate hydrolysis was necessary.
(§3) A 1:15 mixture of cholesterol:corn oil was prepared by adding 25 g of USP cholesterol (Sigma Chemical Company, St. Louis, MO) to 375 g of corn oil (Mazola, Best Foods, CPC International, Inc., Englewood Cliffs, NJ). The mixture was stirred, sonicated, and heated in a hot water bath until the cholesterol completely dissolved. It was necessary to keep the mixture warm (50°-60° C.) in order to prevent congealing.
Batches of feed were prepared by adding 160 g of the cholesterol-corn oil solution to 840 g of Purina Rabbit Chow 5321. The pellets and lipid mixture were thoroughly mixed in a 2-liter or 3-liter Erlenmeyer flask to ensure uniform coating of the pellets. The feed was then stored at room temperature until needed. […]

For assay [1], the system named is Hyperlipidemic Guinea Pigs. Description: Multiple dose study in hyperlipidemic guinea pigs: plasma LDL/HDL ratio by lipoprotein electrophoresis (Test Method 2, Example 29). The conditions noted are these: 2.5 mg/kg i.p. once daily. In kind it is in vivo, guinea pig.
Description: as §1, §2
Freshly prepared samples of EDTA plasma were analyzed for lipoproteins with the Redi-Disc Lipoprotein Electrophoresis Kit (Miles Laboratories, Elkhart, IN) by the procedure recommended in the package insert supplied in the kit.
Redi-Disc Lipoprotein Gel Tubes, polyacrylamide 3%, buffer, preservative.
Redi-Disc Lipoprotein Loading Gel, acrylamide 2.5 g/dl., N,N'-methylenebisacrylamide 0.6 g/dl, sudan black B 13 mg/dl, catalyst, stabilizer, buffer.
Redi-Disc Lipoprotein Buffer, Trishydroxymethylaminomethane 27% w/w, boric acid 73% w/w, pH of solution 7.4-7.9 (11 g diluted to 1200 ml with water).
The gel tubes were removed from the storage buffer and shaken to remove excess buffer. A 25 μl aliquot of plasma was added to each tube and mixed with 200 μl of loading gel. The loading gel was photopolymerized for 30-40 min. under a fluorescent light. The gel tubes were placed in the electrophoresis apparatus (Buchler Instruments, Fort Lee, NJ) and Redi-Disc Liproprotein Buffer was then added to the upper and lower chambers of the apparatus. The current was adjusted to 5 mA per gel tube. Electrophoresis was stopped when the HDL band was about 4-5 mm from the bottom of the gel tube.
The gels were stored in water for at least 30 min. following electrophoresis to allow the lipoprotein zones to spread. The gels were scanned at 615 nm in either a Beckman Acta C111 spectrophotometer or a Beckman DU-8B spectrophotometer. The areas of the lipoprotein peaks (VLDL, LDL, and HDL) were determined by gravimetric analysis (cut and weighed) on the Acta C111 or by electronic integration on the DU-8B.
as §3
Batches of feed were prepared by adding 160 g of the cholesterol-corn oil solution to 840 g of Purina Rabbit Chow 5321. The pellets and lipid mixture were thoroughly mixed in a 2-liter or 3-liter Erlenmeyer flask to ensure uniform coating of the pellets. The feed was then stored at room temperature until needed.
Two groups of male Hartley Guinea pigs were maintained on the high cholesterol diet described above and water containing 0.1% ascorbic acid ad libitum. One group was treated once daily with a freshly prepared solution of test compound 4, N-(diaminophosphinyl)-4-fluorobenzamide, (1.0 mg/ml in 0.9% saline solution) at 2.5 mg/kg by intraperitoneal injection for 14 days. […]

Each structure is given as a SMILES string.

`NP(N)(=O)NC(=O)c1ccc(F)cc1` [Test Compound 4, N-(diaminophosphinyl)-4-fluorobenzamide]: the “% PChE Inhibition (Compared to Control)” value is given as 51.6% with pseudocholinesterase (day 1); 45.0% with pseudocholinesterase (day 3); 58.6% with pseudocholinesterase (day 7); 65.0% with pseudocholinesterase (day 10); 69.0% in the assay on pseudocholinesterase (day 14). The “plasma pseudocholinesterase activity vs saline-treated control” value with pseudocholinesterase (high cholesterol diet, result in words) is listed as “substantially lower plasma pseudocholinesterase activity”. In assay [1] (14th day of treatment, result in words), the “LDL/HDL ratio vs saline-treated control” value was “significantly lower (p<0.05)”. Besides, the LDL/HDL in assay [1] (day 1, control 2.45) is 1.91; in assay [1] (day 3, control 2.28) it was 2.43; in assay [1] (day 7, control 4.25) it was 4.08; in assay [1] (day 10, control 3.23), 2.75; in assay [1] (day 14, control 2.60, significantly different from control (p < 0.05)) it was 1.50.
